Experimental data: patent US9233983B2, “Substituted hetero-bicyclic compounds, compositions and medicinal applications thereof” (ADVINUS THERAPEUTICS LIMITED, priority 2012, dated 2016)

Tests used:
mouse splenocytes = assay: Inhibition of B Cell Activation as Measured by CD69 Expression in Mouse Splenocytes; type: cell-based; details: Splenocyte; C57/BL6 splenocytes, 3 ug/mL goat anti-mouse IgM, 18-20 hrs, CD69+ve cells within CD19; read-out: Mouse spleenocyte IC50
Protocol: Inhibition of B Cell Activation as Measured by CD69 Expression in Mouse Splenocytes:
To test the effect of BTK inhibitors in suppressing B-cell receptor (BCR) mediated activation of B cells, we developed a flow cytometry based assay to analyze CD69 expression in B cell population among total splenocyte from the mouse. […] Finally, cell were cultured in RPMI medium with 10% FBS.
Test compounds were diluted half log starting from 2 mM in 100% DMSO (200×). 1×10^5 splenocytes were incubated with 1 uL of diluted test compounds in 200 uL culture medium in a U-bottom 96 well plate (Greiner) at 37° C. with 5% CO2 for 30 mins. Control wells received 1 uL of 100% DMSO without any compound. The cells were stimulated with 3 ug/mL goat anti-mouse IgM (Sigma, cat#M8644) and incubated for 18-20 hrs. […] Then the cells were washed 3 times with PBS with 1% FBS and analyzed by Guava Easycyte Mini flow cytometer system (Millipore). Flow cytometry data were analyzed using Weasel software (WEHI, Melbourne). First B cells were gated using CD19 markers. Then expression of CD69 was analyzed as percentage of CD69+ve cells within CD19. Percent activity for each data point was calculated using following formula: […]
Percentage activity was fit using sigmoid dose response with variable slope logistic equation in Graph-pad Prism 5 software to determine inhibition constant 50 (IC50).

[1] = biological target: human Bruton's Tyrosine Kinase (Btk) (Homo sapiens (Human), UniProt Q06187); assay: Recombinant Human Bruton's Tyrosine Kinase (Btk) Inhibition Assay (HTRF KinEASE-TK); type: biochemical; details: 20 ng/ml rhBtk, 77 μM ATP (KM), 1 μM TK-Biotin substrate, 90 min; read-out: hBTK IC50
Chain of human Bruton's Tyrosine Kinase (Btk) (Q06187 whole entry): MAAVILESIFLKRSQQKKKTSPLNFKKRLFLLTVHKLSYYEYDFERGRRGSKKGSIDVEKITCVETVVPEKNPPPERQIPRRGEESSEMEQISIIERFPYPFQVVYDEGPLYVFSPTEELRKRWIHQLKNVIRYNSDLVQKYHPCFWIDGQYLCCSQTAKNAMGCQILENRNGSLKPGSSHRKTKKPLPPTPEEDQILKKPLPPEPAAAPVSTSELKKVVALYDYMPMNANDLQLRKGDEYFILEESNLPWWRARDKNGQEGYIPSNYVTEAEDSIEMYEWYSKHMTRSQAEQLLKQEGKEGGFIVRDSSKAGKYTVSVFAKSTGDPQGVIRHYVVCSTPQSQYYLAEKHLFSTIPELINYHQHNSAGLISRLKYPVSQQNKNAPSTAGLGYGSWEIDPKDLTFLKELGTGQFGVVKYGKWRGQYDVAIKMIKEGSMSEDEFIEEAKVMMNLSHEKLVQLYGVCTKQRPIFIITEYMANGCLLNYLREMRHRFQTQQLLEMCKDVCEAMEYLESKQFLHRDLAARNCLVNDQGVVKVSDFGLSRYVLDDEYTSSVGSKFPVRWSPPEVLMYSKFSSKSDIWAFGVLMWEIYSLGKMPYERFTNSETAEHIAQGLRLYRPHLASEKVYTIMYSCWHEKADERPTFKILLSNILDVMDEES

Structure (SMILES) | IC50 (mouse splenocytes) | IC50 [1]
CN1CCOC(c2ccc(-c3cc4c(-c5cccc(N6CCOc7cc(C8CC8)ccc7C6=O)c5CO)ccnc4[nH]3)cc2)C1 (centres unmarked) [Example C-5, 8-cyclopropyl-4-[2-(hydroxymethyl)-3-[2-[4-(4-methylmorpholin-2-yl)phenyl]-1H-pyrrolo[2,3-b]pyridin-4-yl]phenyl]-2,3-dihydro-1,4-benzoxazepin-5-one] | 125 nM | 3 nM
CN1CCC(n2cc(-c3cc4c(-c5cccc(N6CCOc7cc(C8CC8)ccc7C6=O)c5CO)ncnc4[nH]3)cn2)CC1 [Example D-1, 8-cyclopropyl-4-[2-(hydroxymethyl)-3-[6-[1-(1-methyl-4-piperidyl)pyrazol-4-yl]-7H-pyrrolo[2,3-d]pyrimidin-4-yl]phenyl]-2,3-dihydro-1,4-benzoxazepin-5-one] | 32 nM | 6 nM
CN1CCC(n2cc(-c3cc4c(-c5cccc(-n6ccc7cc(C8CC8)ccc7c6=O)c5CO)ncnc4[nH]3)cn2)CC1 [Example D-3, 6-cyclopropyl-2-[2-(hydroxymethyl)-3-[6-[1-(1-methyl-4-piperidyl)pyrazol-4-yl]-7H-pyrrolo[2,3-d]pyrimidin-4-yl]phenyl]isoquinolin-1-one] | 43 nM | 5 nM
CN1CCC(c2ccc(-c3cc4c(-c5cccc(-n6ccc7cc(C8CC8)ccc7c6=O)c5CO)ncnc4[nH]3)cc2)CC1 [Example D-4, 6-cyclopropyl-2-[2-(hydroxymethyl)-3-[6-[4-(1-methyl-4-piperidyl)phenyl]-7H-pyrrolo[2,3-d]pyrimidin-4-yl]phenyl]isoquinolin-1-one] | 19 nM | 3 nM
CN1CCC(n2cc(-c3cc4c(-c5cccc(N6CCOc7cc(C8CC8)ccc7C6=O)c5CO)ccnc4[nH]3)cn2)CC1 [Example D-5, 8-cyclopropyl-4-[2-(hydroxymethyl)-3-[2-[1-(1-methyl-4-piperidyl)pyrazol-4-yl]-1H-pyrrolo[2,3-b]pyridin-4-yl]phenyl]-2,3-dihydro-1,4-benzoxazepin-5-one] | 38 nM | 5 nM
CN1CCCC(n2cc(-c3cc4c(-c5cccc(N6CCOc7cc(C8CC8)ccc7C6=O)c5CO)ncnc4[nH]3)cn2)C1 [Example D-6, 8-cyclopropyl-4-[2-(hydroxymethyl)-3-[6-[1-(1-methyl-3-piperidyl)pyrazol-4-yl]-7H-pyrrolo[2,3-d]pyrimidin-4-yl]phenyl]-2,3-dihydro-1,4-benzoxazepin-5-one] | 53 nM | 5 nM
CN1CC(n2cc(-c3cc4c(-c5cccc(N6CCOc7cc(C8CC8)ccc7C6=O)c5CO)ccnc4[nH]3)cn2)C1 [Example D-7, 8-cyclopropyl-4-[2-(hydroxymethyl)-3-[2-[1-(1-methylazetidin-3-yl)pyrazol-4-yl]-1H-pyrrolo[2,3-b]pyridin-4-yl]phenyl]-2,3-dihydro-1,4-benzoxazepin-5-one] | 43 nM | 4 nM
CC(C)N1CC(n2cc(-c3cc4c(-c5cccc(N6CCOc7cc(C8CC8)ccc7C6=O)c5CO)ccnc4[nH]3)cn2)C1 [Example D-8, 8-cyclopropyl-4-[2-(hydroxymethyl)-3-[2-[1-(1-isopropylazetidin-3-yl)pyrazol-4-yl]-1H-pyrrolo[2,3-b]pyridin-4-yl]phenyl]-2,3-dihydro-1,4-benzoxazepin-5-one] | 97 nM | 6.5 nM
CN1CCC(n2cc(-c3cc4c(-c5cccc(-n6ncc7cc(C8CC8)ccc7c6=O)c5CO)ncnc4[nH]3)cn2)CC1 [Example D-9] | 33 nM | 2 nM
CN1CCN(c2ccc(-c3cc4c(-c5cccc(N6CCOc7cc(C8CC8)ccc7C6=O)c5CO)ccnc4[nH]3)cn2)CC1 [Example D-11, 8-cyclopropyl-4-[2-(hydroxymethyl)-3-[2-[6-(4-methylpiperazin-1-yl)-3-pyridyl]-1H-pyrrolo[2,3-b]pyridin-4-yl]phenyl]-2,3-dihydro-1,4-benzoxazepin-5-one] | 80 nM | 14 nM
CC(C)N1CC(Oc2ccc(-c3cc4c(-c5cccc(N6CCOc7cc(C8CC8)ccc7C6=O)c5CO)ccnc4[nH]3)cn2)C1 [Example D-12, 8-cyclopropyl-4-[2-(hydroxymethyl)-3-[2-[6-(1-isopropylazetidin-3-yl)oxy-3-pyridyl]-1H-pyrrolo[2,3-b]pyridin-4-yl]phenyl]-2,3-dihydro-1,4-benzoxazepin-5-one] | 261 nM | 11 nM
CCN1CCC(n2cc(-c3cc4c(-c5cccc(-n6ncc7cc(C8CC8)ccc7c6=O)c5CO)ncnc4[nH]3)cn2)CC1 [Example D-13, 6-cyclopropyl-2-[3-[6-[1-(1-ethyl-4-piperidyl)pyrazol-4-yl]-7H-pyrrolo[2,3-d]pyrimidin-4-yl]-2-(hydroxymethyl)phenyl]phthalazin-1-one] | 65 nM | 3 nM
O=C1c2c(F)cc(C3CC3)cc2OCCN1c1cccc(-c2ccnc3[nH]c(-c4cnn(C5CCN(C6COC6)CC5)c4)cc23)c1CO [Example D-14, 8-cyclopropyl-6-fluoro-4-[2-(hydroxymethyl)-3-[2-[1-[1-(oxetan-3-yl)-4-piperidyl]pyrazol-4-yl]-1H-pyrrolo[2,3-b]pyridin-4-yl]phenyl]-2,3-dihydro-1,4-benzoxazepin-5-one] | 8 nM | 1.7 nM
O=C1c2ccc(C3CC3)cc2OCCN1c1cccc(-c2ccnc3[nH]c(-c4cnn(C5COC5)c4)cc23)c1CO [Example F-1, 8-cyclopropyl-4-[2-(hydroxymethyl)-3-[2-[1-(oxetan-3-yl)pyrazol-4-yl]-1H-pyrrolo[2,3-b]pyridin-4-yl]phenyl]-2,3-dihydro-1,4-benzoxazepin-5-one] | 70 nM | 3 nM
CC1(O)CCC(n2cc(-c3cc4c(-c5cccc(N6CCOc7cc(C8CC8)ccc7C6=O)c5CO)ccnc4[nH]3)cn2)CC1 (centres unmarked) [Example F-3, 8-cyclopropyl-4-[2-(hydroxymethyl)-3-[2-[1-(4-hydroxy-4-methyl-cyclohexyl)pyrazol-4-yl]-1H-pyrrolo[2,3-b]pyridin-4-yl]phenyl]-2,3-dihydro-1,4-benzoxazepin-5-one] | 92 nM | 3.8 nM
CN1CCC(Oc2ccc(-c3cc4c(-c5cccc(N6CCOc7cc(C8CC8)ccc7C6=O)c5CO)ncnc4[nH]3)cc2)CC1 [Example G-1, 8-cyclopropyl-4-[2-(hydroxymethyl)-3-[6-[4-[(1-methyl-4-piperidyl)oxy]phenyl]-7H-pyrrolo[2,3-d]pyrimidin-4-yl]phenyl]-2,3-dihydro-1,4-benzoxazepin-5-one] | 51 nM | 3 nM
CN1CC(Oc2ccc(-c3cc4c(-c5cccc(N6CCOc7cc(C8CC8)ccc7C6=O)c5CO)ncnc4[nH]3)cc2)C1 [Example G-2, 8-cyclopropyl-4-[2-(hydroxymethyl)-3-[6-[4-(1-methylazetidin-3-yl)oxyphenyl]-7H-pyrrolo[2,3-d]pyrimidin-4-yl]phenyl]-2,3-dihydro-1,4-benzoxazepin-5-one] | 54 nM | 5 nM
CN1CCN(Cc2ccc(-c3cc4c(-c5cccc(N6CCOc7cc(C8CC8)ccc7C6=O)c5CO)ccnc4[nH]3)nc2)CC1 [Example I-1, 8-cyclopropyl-4-[2-(hydroxymethyl)-3-[2-[5-[(4-methylpiperazin-1-yl)methyl]-2-pyridyl]-1H-pyrrolo[2,3-b]pyridin-4-yl]phenyl]-2,3-dihydro-1,4-benzoxazepin-5-one] | 14 nM | 5 nM
CN1CCN(Cc2ccc(-c3cc4c(-c5cccc(N6CCOc7cc(C8CC8)cc(F)c7C6=O)c5CO)ccnc4[nH]3)nc2)CC1 [Example I-2, 8-cyclopropyl-6-fluoro-4-[2-(hydroxymethyl)-3-[2-[5-[(4-methylpiperazin-1-yl)methyl]-2-pyridyl]-1H-pyrrolo[2,3-b]pyridin-4-yl]phenyl]-2,3-dihydro-1,4-benzoxazepin-5-one] | 5 nM | 1 nM
CCN1CCN(Cc2ccc(-c3cc4c(-c5cccc(N6CCOc7cc(C8CC8)ccc7C6=O)c5CO)ccnc4[nH]3)nc2)CC1 [Example I-4, 8-cyclopropyl-4-[3-[2-[5-[(4-ethylpiperazin-1-yl)methyl]-2-pyridyl]-1H-pyrrolo[2,3-b]pyridin-4-yl]-2-(hydroxymethyl)phenyl]-2,3-dihydro-1,4-benzoxazepin-5-one] | 23 nM | 2 nM
O=C1c2ccc(C3CC3)cc2OCCN1c1cccc(-c2ccnc3[nH]c(-c4ccc(CN5CCN(C6CC6)CC5)cn4)cc23)c1CO [Example I-5, 8-cyclopropyl-4-[3-[2-[5-[(4-cyclopropylpiperazin-1-yl)methyl]-2-pyridyl]-1H-pyrrolo[2,3-b]pyridin-4-yl]-2-(hydroxymethyl)phenyl]-2,3-dihydro-1,4-benzoxazepin-5-one] | 30 nM | 3 nM
CS(=O)(=O)N1CCN(Cc2ccc(-c3cc4c(-c5cccc(N6CCOc7cc(C8CC8)ccc7C6=O)c5CO)ccnc4[nH]3)nc2)CC1 [Example I-6, 8-cyclopropyl-4-[2-(hydroxymethyl)-3-[2-[5-[(4-methylsulfonylpiperazin-1-yl)methyl]-2-pyridyl]-1H-pyrrolo[2,3-b]pyridin-4-yl]phenyl]-2,3-dihydro-1,4-benzoxazepin-5-one] | 36 nM | 3 nM
